Measurements as given in patent US10757943B2, “Thidiazuron mixtures and uses thereof” (Valent BioSciences LLC, priority 2017, dated 2020).

Test system: Concord grape vines
Experiment: Bud break and shoot growth of potted dormant Concord grape vines in the greenhouse (Example 1)
Format: in vivo
Conditions: for % bud break (vines with at least one bud break): hydrogen cyanamide 10,000 ppm, 17-0-0 197,100 ppm, 15-0-0 239,060 ppm, ACC 1,000 ppm
Description: An aqueous 50% hydrogen cyanamide solution (Sigma-Aldrich, St. Louis, Mo. USA) was used as the source of hydrogen cyanamide. The commercial product, Dormex® contains 50% hydrogen cyanamide (w/v) in water.
Erger® was used as the source of 15-0-0 fertilizer. (Erger is a registered trademark of Valagro S.P.A., Italy and is available from Helena Chemical Company, Collierville, Tenn., USA). Erger® contains 15% total nitrogen as 3.1% ammoniacal nitrogen, 5.8% nitrate nitrogen and 6.1% urea nitrogen and 3.3% calcium derived from ammonium nitrate, calcium nitrate and urea. As used herein, the term “15-0-0 fertilizer” refers to the Erger® formulation above and all formulations described in International PCT application publication WO/2001/037653A2 by Valagro S.P.A., Italy, which is incorporated, herein, in its entirety.
CAN-17 was used as the source of 17-0-0 fertilizer. CAN-17 contains 17% total nitrogen as 4.6% ammonium nitrogen and […] nitrate nitrogen and 1.3% urea nitrogen and 8.8% calcium derived from ammonium nitrate and calcium nitrate. CAN-17 is available from J.R. Simplot Company (Boise, Id., USA).
To assess the ability of mixtures of the invention to promote and synchronize bud break these mixtures were applied to Concord grape vines and examined for bud break (initiation of growth) and subsequent shoot development. Specifically, 1 year old dormant bare rooted Concord grape vines were planted in pots containing Pro-Mix® BX potting soil (Pro-Mix is a registered trademark of and available from Premier Horticulture Ltd.) and pruned to 5 nodes on a single shoot. Aqueous solutions of thidiazuron, hydrogen cyanamide, 15-0-0 fertilizer, 17-0-0 fertilizer and 1-aminocyclopropane-1-carboxylic acid (“ACC”), and mixtures thereof were each applied individually or sequentially or co-applied to the first-year wood of separate Concord grape vines. Plants were grown in the greenhouse for 49 days and evaluated for percent of vines showing bud break, or relief from dormancy, periodically between 7 days and the conclusion of the experiment. […] At 49 days after treatment (DAT), the plants were sacrificed and measured for total number of flower clusters, total new shoot length, longest new shoot, combined new shoot fresh weight and combined new shoot dry weight. New shoot growth is the growth arising from the dormant buds not including the woody growth that was planted and gave rise to the new growth.
Synergy is calculated by the Abbott method: %Cexp=A+B−(AB/100), where % Cexp is the expected efficacy and in which A and B are the speed of bud break or shoot length or shoot weight given by the single active ingredients. If the ratio between the experimentally observed efficacy of the mixture Cobs and the expected efficacy of the mixture is greater than 1, synergistic interactions are present in the mixture” (Gisi, Synergistic Interaction of Fungicides in Mixtures, The American Phytopathological Society, 86:11, 1273-1279,1996).

[1] = 49 days post treatment, thidiazuron ppm as in label, other concentrations as in Table 1

NC1(C(=O)O)CC1 [ACC, 1-aminocyclopropane-1-carboxylic acid]
% bud break (vines with at least one bud break) (7 DAT, thidiazuron 300 ppm unless label states other): 0% | % bud break (vines with at least one bud break) (10 DAT, thidiazuron 300 ppm unless label states other): 11.1% | % bud break (vines with at least one bud break) (13 DAT, thidiazuron 300 ppm unless label states other): 11.1% | % bud break (vines with at least one bud break) (15 DAT, thidiazuron 300 ppm unless label states other): 11.1% | % bud break (vines with at least one bud break) (17 DAT, thidiazuron 300 ppm unless label states other): 11.1% | % bud break (vines with at least one bud break) (20 DAT, thidiazuron 300 ppm unless label states other): 11.1% | % bud break (vines with at least one bud break) (22 DAT, thidiazuron 300 ppm unless label states other): 22.2% | % bud break (vines with at least one bud break) (24 DAT, thidiazuron 300 ppm unless label states other): 22.2% | % bud break (vines with at least one bud break) (27 DAT, thidiazuron 300 ppm unless label states other): 22.2% | % bud break (vines with at least one bud break) (29 DAT, thidiazuron 300 ppm unless label states other): 33.3% | % bud break (vines with at least one bud break) (31 DAT, thidiazuron 300 ppm unless label states other): 33.3% | % bud break (vines with at least one bud break) (34 DAT, thidiazuron 300 ppm unless label states other): 55.6% | % bud break (vines with at least one bud break) (36 DAT, thidiazuron 300 ppm unless label states other): 66.7% | % bud break (vines with at least one bud break) (38 DAT, thidiazuron 300 ppm unless label states other): 77.8% | % bud break (vines with at least one bud break) (41 DAT, thidiazuron 300 ppm unless label states other): 77.8% | % bud break (vines with at least one bud break) (43 DAT, thidiazuron 300 ppm unless label states other): 77.8% | % bud break (vines with at least one bud break) (49 DAT, thidiazuron 300 ppm unless label states other): 77.8% | Combined Shoot Dry Weight [1]: 1.2 g | Combined Shoot Fresh Weight [1]: 7.1 g | Longest Shoot Length [1]: 27.9 cm | Total # of Flower Clusters [1]: 0.1 | Total Shoot Length [1]: 28.9 cm | Dry Weight (g)/25% Bud Break to Harvest (d) (combined shoot dry weight at 49 DAT normalised by days from 25% bud break to harvest): 0.06 g/day | Dry Weight (g)/50% Bud Break to Harvest (d) (combined shoot dry weight at 49 DAT normalised by days from 50% bud break to harvest): 0.08 g/day | Fresh Weight (g)/50% Bud Break to Harvest (d) (combined shoot fresh weight at 49 DAT normalised by days from 50% bud break to harvest): 0.47 g/day | 50% Bud Break to Harvest (harvest at day 49, thidiazuron 300 ppm unless label states other, other concentrations as in Table 1): 15 days | Initial to 50% Bud Break (synchrony of bud break, thidiazuron 300 ppm unless label states other, other concentrations as in Table 1): 25 days | 25% Bud Break (DAT) (time to 25% bud break, thidiazuron 300 ppm unless label states other, other concentrations as in Table 1): 28 DAT | 50% Bud Break (DAT) (time to 50% bud break, thidiazuron 300 ppm unless label states other, other concentrations as in Table 1): 34 DAT
